The term IC50 denotes the concentration needed to halve the response being measured. Lower therefore signals greater potency in that assay.

The text below walks through data of patent US8809341B2, “2,4-pyrimidinediamine compounds and uses as anti-proliferative agents” (Rigel Pharmaceuticals, Inc., priority 2003, dated 2014).

Structures are written as SMILES.

The test system of this assay is A549 cells. As to the kind of experiment: in vitro antiproliferation assay, A549 (lung). The class given is cell-based. As to the method: The IC50 values of various compounds against a various different tumor cell lines were determined using standard in vitro antiproliferation assays. The tumor cell lines tested were as follows: A549 (lung); H1299 (lung), ACHN (kidney/p53 wt), CAKI (renal cell carcinoma), NCI-H460 (lung); HCT116 (colon/p53w0; HELA (cervix/p53 wt), HUH7 (liver/p53 wt), HUVEC (primary endothelial), LNCAP (prostate), HT-29 (colon); MCF-7 (breast); MCF-7 (breast/ER positive), MDA MB435S (breast); MDA MB231 (breast/ER negative), DU145 (prostate); BxPC-3 (pancreatic); SKOV-3 (ovarian); HepG2 (hepatic), NDHF primary normal human dermal fibroblast), SKMEL28 (breast/p53mut), SKMEL5 (breast/p53 wt), U20S (bone) and PC3 (prostate). […] A blank indicates the specified compound was not tested against the specified cell line.

[1] abbreviates: Table 5, in vitro antiproliferation, A549 (lung) cells.
Where [2] appears, read: Table 7, in vitro antiproliferation, A549 (lung) cells.
[3] abbreviates: A549 (lung) cells, in vitro antiproliferation.
[4] abbreviates: A549 (lung) cells, antiproliferation.

Molecule `CC(C)(C)c1cc(Nc2nc(Nc3cccc(N4CCOCC4)c3)ncc2F)n[nH]1` [compound 199] displayed an IC50 (Homo sapiens, IC50 class against A549 (lung) tumor cells) of no more than 20 µM.

`CC1(C)Oc2ccc(Nc3nc(Nc4cc(Cl)cc(Cl)c4)ncc3F)cc2NC1=O` [compound 308] registered an IC50 (in vitro antiproliferation, A549 (lung) cells, Table 4, compounds with no designated stereochemistry tested as racemate) of no more than 20 µM. As to `O=C(COc1ccc(Nc2ncc(F)c(Nc3ccc4c(c3)OCCO4)n2)cc1)NCCO` [compound 474], the IC50 under setting [1] is greater than 20 µM. `CCCCCCOc1ccc(Nc2ncc(F)c(Nc3ccc4c(c3)OCCO4)n2)cc1` [compound 477] came in with an IC50 under setting [1] greater than 20 µM. The molecule `CCOc1ccc(Nc2ncc(F)c(Nc3ccc4c(c3)OCCO4)n2)cc1` [compound 478] yielded an IC50 under setting [1] of no more than 20 µM.

The molecule `CCCCOc1ccc(Nc2ncc(F)c(Nc3ccc4c(c3)OCCO4)n2)cc1` [compound 479] yielded an IC50 under setting [1] greater than 20 µM. On the same count and under the same terms, the same measure for `CCOC(=O)COc1ccc(Nc2ncc(F)c(Nc3ccc4c(c3)OCCO4)n2)cc1` [compound 480]: greater than 20 µM. Molecule `CN(C)C(=O)COc1cccc(Nc2ncc(F)c(Nc3ccc4c(c3)OCCO4)n2)c1` [compound 481] showed an IC50 under setting [1] greater than 20 µM. For the molecule `Oc1cccc(Nc2ncc(F)c(Nc3ccc4c(c3)OCCO4)n2)c1` [compound 482], the IC50 under setting [1] was greater than 20 µM. `Fc1ccc(Nc2ncc(F)c(Nc3ccc4c(c3)OCCO4)n2)cc1Cl` [compound 485] registered an IC50 under setting [1] greater than 20 µM. The molecule `Fc1ccc(Nc2ncc(F)c(Nc3ccc4c(c3)OCCO4)n2)cc1` [compound 487] had an IC50 under setting [1] greater than 20 µM. In turn, `CCc1ccc(Nc2ncc(F)c(Nc3ccc4c(c3)OCCO4)n2)cc1` [compound 489] yielded an IC50 under setting [1] greater than 20 µM.

For the molecule `O=C(O)COc1ccc(Nc2ncc(F)c(Nc3ccc4c(c3)OCCO4)n2)cc1` [compound 490], the half-inhibitory concentration (IC50) under setting [1] is greater than 20 µM. The molecule `CC(=O)COc1cccc(Nc2ncc(F)c(Nc3ccc4c(c3)OCCO4)n2)c1` [compound 492] came in with an IC50 under setting [1] greater than 20 µM.

Under setting [1], `CNCCOc1cccc(Nc2ncc(F)c(Nc3ccc4c(c3)OCCO4)n2)c1` [compound 498] displayed an IC50 greater than 20 µM. As for `Fc1cnc(Nc2cccc(C(F)(F)F)c2)nc1Nc1ccc2c(c1)OCCO2` [compound 514], under setting [1], the IC50 is greater than 20 µM.

In the case of `O=C(COc1cccc(Nc2ncc(F)c(Nc3ccc4c(c3)OCCO4)n2)c1)NC1CC1` [compound 520], the half-maximal inhibitory concentration (IC50) under setting [1] is no more than 20 µM. `OCCOc1cccc(Nc2ncc(F)c(Nc3ccc4c(c3)OCCO4)n2)c1` [compound 576] had an IC50 under setting [1] of no more than 20 µM. Molecule `COC(=O)COc1cccc(Nc2ncc(F)c(Nc3ccc4c(c3)OCCO4)n2)c1` [compound 586] registered an IC50 under setting [1] greater than 20 µM. Consider `OCCOc1ccc(Nc2ncc(F)c(Nc3ccc4c(c3)OCCO4)n2)cc1` [compound 587], for which the IC50 under setting [1] was no more than 20 µM. The molecule `CCOC(=O)c1cc2cc(Nc3ncc(F)c(Nc4ccc(C(C)(C)C)cc4)n3)ccc2[nH]1` [compound 617] gave an IC50 under setting [2] greater than 20 µM. The same measure, in the same setting: the same measure for `CCOC(=O)c1cc2cc(Nc3ncc(F)c(Nc4ccc5c(c4)OCCO5)n3)ccc2[nH]1` [compound 618]: no more than 20 µM; for `COC(=O)c1cc2cc(Nc3ncc(F)c(Nc4ccc(C(C)(C)C)cc4)n3)ccc2o1` [compound 619]: greater than 20 µM. Regarding `O=C(O)c1cc2cc(Nc3ncc(F)c(Nc4cccc(O)c4)n3)ccc2[nH]1` [compound 621], the IC50 under setting [2] was greater than 20 µM.

As to `CC(C)(C)c1ccc(Nc2nc(Nc3ccc4oc(C(=O)O)cc4c3)ncc2F)cc1` [compound 622], the IC50 under setting [2] was greater than 20 µM.

`COC(=O)c1cc2cc(Nc3ncc(F)c(Nc4cccc(OC(C)C)c4)n3)ccc2o1` [compound 623]: the IC50 under setting [2] is greater than 20 µM. With `O=C(c1cc2cc(Nc3ncc(F)c(Nc4cccc(O)c4)n3)ccc2o1)N1CCOCC1` [compound 624], the IC50 under setting [2] was greater than 20 µM.

Under setting [2], `CNC(=O)c1cc2cc(Nc3ncc(F)c(Nc4cccc(O)c4)n3)ccc2o1` [compound 627] displayed a half-maximal inhibitory concentration (IC50) greater than 20 µM. On the same count and under the same terms, the figure for `CNC(=O)c1cc2cc(Nc3ncc(F)c(Nc4ccc(C(C)(C)C)cc4)n3)ccc2o1` [compound 628] is greater than 20 µM.

With `O=C(NCCO)c1cc2cc(Nc3ncc(F)c(Nc4cccc(O)c4)n3)ccc2o1` [compound 630], under setting [2], the IC50 is greater than 20 µM. Turning to `COC(=O)c1cc2cc(Nc3ncc(F)c(Nc4ccc5c(c4)OCCO5)n3)ccc2o1` [compound 638], the IC50 under setting [2] is greater than 20 µM. Same read-out and setting: the same measure for `O=C(O)c1cc2cc(Nc3ncc(F)c(Nc4ccc5c(c4)OCCO5)n3)ccc2o1` [compound 639]: greater than 20 µM; for `CC(C)Oc1ccc(Nc2nc(Nc3ccc4oc(C(=O)N5CCCC5)cc4c3)ncc2F)cc1` [compound 640]: greater than 20 µM; for `COC(=O)c1cc2cc(Nc3ncc(F)c(Nc4ccc(OC(C)C)cc4)n3)ccc2o1` [compound 641]: greater than 20 µM. Molecule `CNC(=O)c1cc2cc(Nc3ncc(F)c(Nc4cccc(C(C)(C)C)c4)n3)ccc2o1` [compound 675] showed an IC50 under setting [2] greater than 20 µM. For `CN(C)CCOc1ccc(Nc2ncc(F)c(Nc3cccc(O)c3)n2)cc1` [compound 693], the IC50 under setting [3] is no more than 20 µM.

Turning to `Fc1cc(Nc2ncc(F)c(Nc3ccc(C(F)(F)F)c(F)c3)n2)ccc1C(F)(F)F` [compound 703], the IC50 under setting [3] is greater than 20 µM. On to `Fc1cnc(Nc2cccc(OC(F)(F)F)c2)nc1Nc1cccc(OC(F)(F)F)c1` [compound 705], for which, under setting [3], the IC50 was greater than 20 µM. Turning to `Fc1cnc(Nc2ccc(Cl)c(C(F)(F)F)c2)nc1Nc1ccc(Cl)c(C(F)(F)F)c1` [compound 706], the 50% inhibitory concentration (IC50) under setting [3] was greater than 20 µM. On to `CCOc1cccc(Nc2ncc(F)c(Nc3cccc(OCC)c3)n2)c1` [compound 707], for which the IC50 under setting [3] was no more than 20 µM. As to `COc1cccc(Nc2ncc(F)c(Nc3cccc(OC)c3)n2)c1` [compound 708], the IC50 under setting [3] is no more than 20 µM. As for `CCOc1ccc(Nc2nc(Nc3ccc(OC)c(OC)c3)ncc2F)cc1` [compound 709], the IC50 under setting [3] is greater than 20 µM.

`Oc1cccc(Nc2ncc(F)c(Nc3cccc(O)c3)n2)c1` [compound 711] yielded an IC50 under setting [3] of no more than 20 µM. Same read-out and setting: the same measure for `COc1ccc(Nc2ncc(F)c(Nc3cccc(O)c3)n2)cc1OC` [compound 712]: greater than 20 µM; for `CCOc1ccc(Nc2nc(Nc3cccc(O)c3)ncc2F)cc1` [compound 714]: greater than 20 µM; for `COc1ccc(Nc2nc(Nc3cccc(O)c3)ncc2F)cc1OC` [compound 715]: no more than 20 µM.

`Fc1cnc(Nc2ccc(Cl)cc2)nc1Nc1ccc(Cl)cc1` [compound 716] displayed an IC50 under setting [3] greater than 20 µM. Under setting [3], `CCc1ccc(Nc2ncc(F)c(Nc3ccc(CC)cc3)n2)cc1` [compound 722] displayed an IC50 greater than 20 µM.

In turn, `COC(=O)COc1ccc(Nc2ncc(F)c(Nc3ccc(OCC(=O)OC)cc3)n2)cc1` [compound 723] yielded a half-inhibitory concentration (IC50) under setting [3] of no more than 20 µM.

Under setting [3], `COc1ccc(Nc2ncc(F)c(Nc3ccc(OC)c(O)c3)n2)cc1O` [compound 725] had an IC50 of no more than 20 µM. Under setting [3], `CCOC(=O)COc1ccc(Nc2ncc(F)c(Nc3cccc(O)c3)n2)cc1` [compound 729] showed an IC50 greater than 20 µM. `Oc1ccc(Nc2ncc(F)c(Nc3ccc(O)cc3)n2)cc1` [compound 730]: under setting [3], the concentration for half-maximal inhibition (IC50) was no more than 20 µM. `Cc1cc(Nc2ncc(F)c(Nc3ccc(O)c(C)c3)n2)ccc1O` [compound 731] displayed an IC50 under setting [3] greater than 20 µM.

`O=C(O)COc1ccc(Nc2ncc(F)c(Nc3ccc(OCC(=O)O)cc3)n2)cc1` [compound 733] showed an IC50 under setting [3] greater than 20 µM. Turning to `CNC(=O)COc1ccc(Nc2ncc(F)c(Nc3ccc(OCC(=O)O)cc3)n2)cc1` [compound 734], the half-inhibitory concentration (IC50) under setting [3] is greater than 20 µM.

In turn, `O=C(O)COc1ccc(Nc2ncc(F)c(Nc3cccc(Cl)c3)n2)cc1` [compound 736] came in with an IC50 under setting [3] greater than 20 µM. `CCOC(=O)COc1ccc(Nc2ncc(F)c(Nc3ccc(OCC(=O)OCC)cc3)n2)cc1` [compound 737] came in with an IC50 under setting [3] greater than 20 µM.

`COC(=O)COc1ccc(Nc2ncc(F)c(Nc3ccc(OCC(=O)OC(C)(C)C)cc3)n2)cc1` [compound 738] gave an IC50 under setting [3] greater than 20 µM. For `CC(C)(C)OC(=O)COc1ccc(Nc2ncc(F)c(Nc3ccc(OCC(=O)OC(C)(C)C)cc3)n2)cc1` [compound 739], the IC50 under setting [3] is greater than 20 µM. Under setting [3], `COc1cc(Nc2ncc(F)c(Nc3cc(OC)c(OC)c(OC)c3)n2)cc(OC)c1OC` [compound 743] returned an IC50 greater than 20 µM. For `Oc1cccc(Nc2nc(Nc3ccc(OCCN4CCOCC4)cc3)ncc2F)c1` [compound 744], the IC50 under setting [3] is no more than 20 µM. Regarding `CC(C)Oc1ccc(Nc2ncc(F)c(Nc3ccc(OC(C)C)cc3)n2)cc1` [compound 745], the IC50 under setting [3] was greater than 20 µM. In turn, `COc1cc(Nc2ncc(F)c(Nc3cccc(O)c3)n2)cc(OC)c1OC` [compound 760] displayed an IC50 under setting [3] greater than 20 µM.

Take `CNC(=O)COc1cccc(Nc2ncc(F)c(Nc3cccc(C(F)(F)F)c3)n2)c1` [compound 770]: under setting [3], the IC50 was no more than 20 µM. On to `CNC(=O)COc1cccc(Nc2nc(Nc3cc(OC)cc(OC)c3)ncc2F)c1` [compound 771], for which the IC50 under setting [3] is no more than 20 µM.

On to `CNC(=O)COc1cccc(Nc2ncc(F)c(Nc3ccc(OC)c(Cl)c3)n2)c1` [compound 788], for which, under setting [3], the IC50 is no more than 20 µM. `OCCOc1ccc(Nc2ncc(F)c(Nc3cccc(O)c3)n2)cc1` [compound 934] gave an IC50 under setting [4] of no more than 20 µM. In the case of `CC(C)c1ccc(Nc2nc(Nc3cccc(OCCO)c3)ncc2F)cc1` [compound 935], the IC50 under setting [4] was greater than 20 µM. Under setting [4], `COC(=O)COc1ccc(Nc2ncc(F)c(Nc3ccc(C(C)C)cc3)n2)cc1` [compound 936] had an IC50 greater than 20 µM.

Under setting [4], `CC(C)c1ccc(Nc2nc(Nc3ccc(OCCO)cc3)ncc2F)cc1` [compound 937] displayed an IC50 of no more than 20 µM. The same measure, in the same setting: the same measure for `OCCOc1cccc(Nc2nc(Nc3cccc(O)c3)ncc2F)c1` [compound 939]: greater than 20 µM.
